The values that follow come from patent US6825209B2, “Compounds having unique CB1 receptor binding selectivity and methods for their production and use” (Research Triangle Institute, priority 2002, dated 2004).

SMILES strings stand for the structures.

Experiment [1] addresses T1, G-protein-linked cannabinoid receptors (Rattus norvegicus, UniProt P20272).
T1 construct: tissue Charles River or Pel-Freez Biologicals; host or cells: whole rat brain crude membrane homogenate
As to the kind of experiment: GTP-γ-[35S] binding in whole rat brain. The class given is biochemical. As to conditions: whole rat brain membranes; for Emax, GTP-γ-[35S] in Whole Rat Brain: effects reported as percent change from basal; for EC50: inverse agonist/antagonist activity, read-out: EC50, GTP-γ-[35S] in Whole Rat Brain. The source says: Cannabinoid receptor-mediated alteration in GTP-γ-[^35S] binding.
Introduction. The purpose of this assay was to characterize the functional activity of lead compounds identified by the radioligand competition binding assays described above. Data from the GTP-γ-[^35S] binding assay was used to determine if a compound was an agonist, antagonist or inverse agonist at G-protein-linked cannabinoid receptors. Agonist binding to a G-protein-linked receptor results in an increased affinity of the G-protein α-subunit for GTP relative to GDP. Eventually, an active αGTP complex forms to complete the stimulus-effector coupling. The α-subunit has intrinsic GTPase activity which generates a free α-subunit which can recombine with the β- and γ-subunits readying the G-protein for another signal transduction cycle. In the current assay, GTP-γ-[^35S] cannot be hydrolyzed by the α-subunit. Thus, the amount of bound GTP-γ-[^35S] is a marker for G-protein activation. In this assay, an agonist increases basal GTP-γ-[^35S] binding, an inverse agonist decreases basal binding and basal binding would be unaffected by an antagonist.
Experimental Design. The specific binding of GTP-γ-[^35S], in the absence of test compound, was termed “basal” activity. Test compounds were characterized as agonist, antagonist, or inverse agonist based on their effect on basal activity. […] The concentrations spanned two orders of magnitude because affinity may not be related to efficacy. […] Effects of the test compounds are reported as the percent change from basal. More thorough dose-response analysis may be run to determine, for example, if a compound is a full or partial agonist.
Methods. […] In a final volume of 0.5 mL, each assay tube contained: 0.02 mg crude membrane homogenate (0.1 mL), 200 μM GDP (0.05 mL; to reduce basal G-protein activity), 0.1 nM GTP-γ-[^35S] (0.05 mL) and several concentrations of test compound (0.05 mL) or an equivalent volume of vehicle (used for determination of total binding). Nonspecific binding was determined in the presence of 100 μM unlabeled GTP-γ-S (0.05 mL). Duplicate samples were incubated for 1 h at 30° C. Since this assay is amenable for use with high throughput screening methods, the binding assays were run using a 96-well plate format. Specific binding was calculated as total binding-nonspecific binding.
For orientation: GTPγS resists hydrolysis and so accumulates on activated G proteins.

In experiment [2] the target is T2, CB1 receptor (Rattus norvegicus, UniProt P20272).
T2 construct: Whole rat brains or dissected regions from live CD rats; tissue Charles River or Pel-Freez Biologicals; host or cells: whole rat brain (CD rats), P2 membrane
T2 sequence (P20272 whole entry): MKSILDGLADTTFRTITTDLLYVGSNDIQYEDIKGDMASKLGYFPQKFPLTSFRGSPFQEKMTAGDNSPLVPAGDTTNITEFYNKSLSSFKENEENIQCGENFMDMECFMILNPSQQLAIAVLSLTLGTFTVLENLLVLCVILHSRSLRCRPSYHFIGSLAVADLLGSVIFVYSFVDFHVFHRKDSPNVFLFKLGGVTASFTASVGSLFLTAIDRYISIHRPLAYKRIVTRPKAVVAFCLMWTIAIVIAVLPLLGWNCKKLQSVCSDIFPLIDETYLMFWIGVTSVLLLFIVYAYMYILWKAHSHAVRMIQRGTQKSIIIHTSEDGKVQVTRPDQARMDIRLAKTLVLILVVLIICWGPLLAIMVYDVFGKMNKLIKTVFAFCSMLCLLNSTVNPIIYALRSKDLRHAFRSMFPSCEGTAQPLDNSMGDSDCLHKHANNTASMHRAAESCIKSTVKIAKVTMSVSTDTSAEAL
As to the kind of experiment: Radioligand displacement in whole rat brain (CB1) membrane preparations. The class given is binding. To be noted: Tables 1 and 2. An excerpt: CB1 receptor affinity in rat brain.
Methods—membrane preparation from brain. The methods for tissue preparation are essentially those described by Devane et al. (1988) as modified by Compton et al. (1993) and later by Thomas et al. (1998). Whole rat brains or dissected regions from live CD rats from Charles River or Pel-Freez Biologicals (Rogers, Ark.), or human brain sections obtained from the National Disease Research Institute, were allowed to thaw to room temperature on ice. Both whole brain and dissected brain regions were used because different brain regions may express different cannabinoid receptor subtypes (Skaper et al., 1996; Thomas et al., 1998). The tissue was homogenized with a Kontes Potter-Elvehjem glass-Teflon grinding system (Fisher Scientific, Springfield, N.J.) in buffer 1 (320 mM sucrose, 2 mM EDTA, 5 mM MgCl2. The homogenate was centrifuged at 1600 g for 10 min. The supernatant was saved and combined with the two subsequent supernatants obtained from washing and 1600 g centrifugation of the P1 pellet. The combined supernatant fractions were then centrifuged at 39,000 g for 15 min. The P2 pellet was resuspended in 50 mL of buffer 2 (50 mM Tris.HCl, 2 mM EDTA, 5 mM MgCl2, pH 7.0), incubated at 37° C. for 10 min, then centrifuged at 23,000 g for 10 min. The P2 membrane was resuspended in 50 mL of buffer 2, incubated at 30° C. for 40 min, then centrifuged at 11,000 g for 15 min. The final wash-treated P2 pellet was resuspended in assay buffer 3 (50 mM Tris.HCl, 1 mM EDTA, 3 MM MgCl2, pH 7.4). Protein concentrations were determined by the method of Bradford (1976) using Coomassie brilliant blue dye (Bio-Rad, Richmond, Calif.) and BSA standards (bovine serum albumin, fatty acid free, Sigma Chemical Co., St. Louis, Mo.) prepared in assay buffer 3. The membrane preparation was divided into aliquots and stored at −80° C. For use in the binding assay, an aliquot of frozen membranes was thawed on ice and diluted to a concentration of ca. 0.2 mg/mL in assay buffer.
Methods—binding assay in brain membrane preparation. The methods for ligand binding are essentially those described by Devane et al. (1988) with the exception that we used a filtration assay. […] All cannabinoid analogs were prepared by suspension in buffer A from a 1-5 mg/mL ethanolic stock. Following incubation at 30° C. for 1 h, binding was terminated by vacuum filtration through pretreated filters in a 96-well sampling manifold (Millipore, Bedford, Mass.). Reaction vessels were washed at least 3 times with 1 mL of ice cold buffer B (50 mM Tris.HCl, 1 mg/mL BSA). The filter plates were air-dried and sealed on the bottom. Liquid scintillant was added to the wells and the top sealed. After incubating the plates in cocktail for at least 2 h, the radioactivity present was determined by liquid scintillation spectrometry. Assays were done in duplicate, and results represent the combined data of three to six independent experiments. All assays were performed in polypropylene test tubes. The GF/C glassfiber filter plates (Packard, Meriden, Conn.) were pretreated in buffer B for at least 1 h.
(§1) Data analysis. Saturation and displacement data were analyzed by unweighted nonlinear regression of receptor binding data. For displacement studies, curve-fitting and IC50 calculation were done with GraphPad Prism (GraphPad Software, Inc., San Diego, Calif.), which fits the data to one and two-site models and compares the two fits statistically. A similar approach was used for the analysis of isotherm data for calculation of Kd's. A two-site fit was accepted only if it was statistically significant (p<0.05) and the following results were not observed:
(§2) IC50 values were then converted to Ki values by reported methods (Cheng and Prusoff, 1973). The statistical evaluation of curve-fitting data allowed for a non-arbitrary conclusion based on the displacement data.

The target in experiment [3] is T3, human CB2 receptor (Homo sapiens, UniProt P34972).
T3 construct: expressed in transfected cells; host or cells: CHO-K1
T3 sequence (P34972 whole entry): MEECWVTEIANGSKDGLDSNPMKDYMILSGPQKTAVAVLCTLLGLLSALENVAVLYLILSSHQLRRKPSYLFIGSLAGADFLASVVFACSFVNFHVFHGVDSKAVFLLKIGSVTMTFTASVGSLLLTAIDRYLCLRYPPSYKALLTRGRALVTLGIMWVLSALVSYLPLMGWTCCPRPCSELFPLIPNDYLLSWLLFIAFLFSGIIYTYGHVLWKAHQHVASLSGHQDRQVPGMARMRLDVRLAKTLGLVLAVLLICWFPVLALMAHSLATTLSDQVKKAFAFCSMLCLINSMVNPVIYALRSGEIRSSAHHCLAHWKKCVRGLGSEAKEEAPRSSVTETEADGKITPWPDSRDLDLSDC
Briefly: Displacement of 3H-CP55,940 in human CB2 receptor-transfected cells (CHO-K1). The class given is binding. As to conditions: radioligand 3H-CP55940, Tables 6 and 7. The procedure:
Human CB2 receptor affinity. The relative selectivity of the analogs for CB1 versus CB2 receptors varied modestly regardless of the structural modifications examined to date.
(§3) Methods—binding assay in transfected cell lines. The methods used for performing binding assays in transfected cells expressing human CB1 or CB2 receptors are those used above. The CB1 receptor involved a HEK-293 expression system whereas the CB2 receptor was expressed in CHO-K1 cells. […] The incubations and separations were then performed as described above for rat brain membrane preparations.
as §1, §2
(In a radioligand displacement assay an active substance lowers the binding of a labelled ligand.)

Experiment [4] has as its target T4, human CB1 receptor (Homo sapiens, UniProt P21554).
T4 construct: expressed in transfected cells; host or cells: HEK-293
As to the kind of experiment: Radioligand displacement in human CB1 receptor-transfected cells (HEK-293). The class given is binding. The procedure:
Human CB1 receptor affinity. The alkyl amide analogs of the present invention were examined using transfected cell lines expressing the human CB1 receptor (Table 3).
as §3, §1, §2

[5] abbreviates: whole rat brain membranes, radioligand 3H-CP55940.
Setting [6] is: whole rat brain membranes, radioligand 3H-SR141716A.

As usually defined, the EC50 is the concentration at which the effect is half-maximal. The term Ki denotes a measure of affinity in units of concentration, obtained from inhibition or displacement. Read a low Ki as tighter binding.

T1 sequence (P20272 whole entry): as the sequence (P20272 whole entry) above
T4 sequence (P21554 whole entry): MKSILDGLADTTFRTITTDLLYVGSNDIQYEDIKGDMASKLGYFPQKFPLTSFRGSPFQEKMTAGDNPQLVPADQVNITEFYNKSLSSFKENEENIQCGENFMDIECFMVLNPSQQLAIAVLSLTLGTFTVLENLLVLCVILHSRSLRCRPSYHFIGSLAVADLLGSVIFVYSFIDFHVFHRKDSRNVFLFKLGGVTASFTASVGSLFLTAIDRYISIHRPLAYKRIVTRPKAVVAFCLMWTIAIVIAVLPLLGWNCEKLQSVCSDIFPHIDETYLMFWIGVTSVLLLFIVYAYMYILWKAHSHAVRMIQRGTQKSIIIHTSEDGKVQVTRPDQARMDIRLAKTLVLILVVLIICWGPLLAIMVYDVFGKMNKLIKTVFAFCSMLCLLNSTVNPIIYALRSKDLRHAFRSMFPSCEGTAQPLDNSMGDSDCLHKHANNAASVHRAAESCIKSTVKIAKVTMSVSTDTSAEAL

As for `Cc1c(C(=O)NN2CCCCC2)nn(C2CCCCC2)c1-c1ccc(Cl)cc1` [MF9879-117-24], in experiment [1], the “Emax, GTP-γ-[35S] in Whole Rat Brain” value was −71.7 and the EC50 is 108 µM.

Regarding `CCCCCCC(C)(C)NC(=O)c1nn(-c2ccc(Cl)cc2Cl)c(-c2ccc(Cl)cc2)c1C` [MF10110-119-11], the Ki in experiment [2] (displacement of 3H-CP55940, whole rat brain membranes, radioligand 3H-CP55940) was 0.181 µM; in experiment [2] (displacement of 3H-SR141716A, whole rat brain membranes, radioligand 3H-SR141716A), 0.0216 µM; in experiment [2] (displacement of 3H-WIN55212-2, whole rat brain membranes, radioligand 3H-WIN55212-2), 0.0104 µM; in experiment [3] (Ki, displacement of 3H-CP55940, human CB2 transfected cells), 16.6 µM; in experiment [4] (displacement of 3H-CP55940), 0.0327 µM; in experiment [4] (displacement of 3H-SR141716A), 0.005 µM. The Ki in experiment [4] (displacement of 3H-WIN55212-2) turned out to be 0.0144 µM. The “Max. Disp. %, 3H-CP55940” value in experiment [2] (setting [5]) was found to be 83.2%; in experiment [3] (human CB2 transfected cells) it was 52.8%. Further, the “Max. Disp. %, 3H-SR141716A” value in experiment [2] (setting [6]) is 76.4%; in experiment [4], 99.9%. Moreover, the “Max. Disp. %, 3H-WIN55212-2” value in experiment [2] (whole rat brain membranes, radioligand 3H-WIN55212-2) is 72.2%; in experiment [4], 86.5%.

`CCCCCCCn1nc(C(=O)NN2CCCCC2)c(C)c1-c1ccc(Cl)cc1` [MF10278-20-15]: in experiment [1], the “Emax, GTP-γ-[35S] in Whole Rat Brain” value is −85.7 and the EC50 was determined as 156 µM.

As for `CCCCCCn1nc(C(=O)NN2CCCCC2)c(C)c1-c1ccc(Cl)cc1` [MF10278-22-16], in experiment [1], the “Emax, GTP-γ-[35S] in Whole Rat Brain” value is given as −71.5 and the EC50 was found to be 74.7 µM.

As to `Cc1c(C(=O)O)nn(-c2ccc(Cl)cc2Cl)c1-c1ccc(Cl)cc1` [SH9631-55], the “Max. Disp. %, 3H-CP55940” value in experiment [2] (setting [5]) is 8.2%. In experiment [2] (setting [6]), the “Ki, displacement of 3H-SR141716A” value is given as “Nr” and the “Max. Disp. %, 3H-SR141716A” value stood at 0%. Moreover, in experiment [3] (human CB2 transfected cells), the “Ki, displacement of 3H-CP55940” value is “nr” and the “Max. Disp. %, 3H-CP55940” value stood at 0.0%.
